Consider two compounds from EP0403242A1, “New L-683,590 microbial transformation product” (Merck & Co., Inc., priority 1989, dated 1990).

For series [1], the system named is mouse T lymphocytes. The experiment in a line: T-cell proliferation assay (ionomycin plus PMA induced T-cell stimulation, tritiated thymidine uptake). It is filed as cell-based, C57B1/6 mice. Here is the method:
The principle of this assay is to measure the proliferation of mouse T lymphocytes stimulated with the combination of ionomycin plus PMA. […] Cells were pelleted by centrifugation at 1500 rpm for 8 minutes. Contaminating red cells were removed by treating the pellet with ammonium chloride lysing buffer (GIBCO) for 2 minutes at 4°C. Cold medium was added and cells were again centrifuged at 1500 rpm for 8 minutes. T lymphocytes were then isolated by separation of the cell suspension on nylon wool columns as follows: Nylon wool columns were prepared by packing approximately 4 grams of washed and dried nylon wool into 20 ml plastic syringes. The columns were sterilized by autoclaving at 250°F for 30 minutes. Nylon wool columns were wetted with warm (37°C) culture medium and rinsed with the same medium. Washed spleen cells resuspended in warm medium were slowly applied to the nylon wool. The columns were then incubated in an upright position at 37°C for 1 hour. Non-adherent T lymphocytes were eluted from the columns with warm culture medium and the cell suspensions were spun as above. […] The cell suspension was immediately distributed into 96 well flat-bottom microculture plates (Costar) at 200 μl/well. […] The proliferation of T lymphocytes was assessed by measurement of tritiated thymidine incorporation. After 44 hours of culturing, the cells were pulse-labelled with 2 μCi/well of tritiated thymidine (NEN, Cambridge, MA). After another 4 hours of incubation, cultures were harvested on glass fiber filters using a multiple sample harvester. Radioactivity of filter discs corresponding to individual wells was measured by standard liquid scintillation counting methods (Betacounter). […]

The nature of series [2]: Physical characteristics of the fermentation product. It is filed as physicochemical. Particulars: qualitative, solvent methanol. The text has this: White amorphous powder • 2. […] Molecular weight of 763, as determined by electron impact mass spectroscopy and is consistent with the assigned molecular structure in Figure 1.

pIC50: −log10 of the molar value. Values joined by “and” are separate entries in the source; they are usually repeats but may differ in a detail not shown here. Identical values can stand only once. Like-named read-outs stand apart in the source and are kept apart here.

Consider `C=CC[C@@H]1/C=C(\C)C[C@H](C)C[C@H](OC)[C@H]2O[C@@](O)(C(=O)C(=O)N3CCCC[C@H]3C(=O)O[C@H](/C(C)=C/[C@@H]3CC[C@@H](O)[C@H](OC)C3)[C@H](C)[C@@H](O)CC1=O)[C@H](C)C[C@@H]2OC` [L-679,934, reference compound], for which the inhibition at 0.001 µg/mL in series [1] (Mus musculus, T-lymphocyte, Table 1, L-679,934 1 ng/ml alone (0 ng/ml L-686,292)) turned out to be 99%; in series [1] (Mus musculus, T-lymphocyte, Table 2, L-679,934 (1 ng/ml) alone (0 ng/ml L-686,292)) it was 97.1%. The IC50 in series [1] (Mus musculus, T-lymphocyte, read-out: IC₅₀ for L-679,934-mediated inhibition) is 0.00032 µg/mL and 0.4 nM.

As to `CC[C@@H]1/C=C(\C)C[C@H](C)C[C@H](O)[C@H]2O[C@@](O)(C(=O)C(=O)N3CCCC[C@H]3C(=O)O[C@H](/C(C)=C/[C@@H]3CC[C@@H](O)[C@H](O)C3)[C@H](C)[C@@H](O)CC1=O)[C@H](C)C[C@@H]2OC` [L-686,292], the inhibition at 0.031 µg/mL in series [1] (Mus musculus, T-lymphocyte, 48 h, Table 1, L-686,292 only, 31 ng/ml, harvest at 48 hours) was 0%. For the same compound, the inhibition at 0.063 µg/mL in series [1] (Mus musculus, T-lymphocyte, 48 h, Table 1, L-686,292 only, 63 ng/ml, harvest at 48 hours) was determined as 0%. Besides, the inhibition at 0.125 µg/mL in series [1] (Mus musculus, T-lymphocyte, 48 h, Table 1, L-686,292 only, 125 ng/ml, harvest at 48 hours) amounted to 0%. In series [1] (Mus musculus, T-lymphocyte, 48 h, Table 1, L-686,292 only, 250 ng/ml, harvest at 48 hours), the inhibition at 0.25 µg/mL worked out at 0%. Further, the inhibition at 0.5 µg/mL in series [1] (Mus musculus, T-lymphocyte, 48 h, Table 1, L-686,292 only, 500 ng/ml, harvest at 48 hours) came out at 0%. Further, in series [1] (Mus musculus, T-lymphocyte, 48 h, Table 1, L-686,292 only, 1000 ng/ml, harvest at 48 hours), the inhibition at 1 µg/mL is 0%. The inhibition at 0.001 µg/mL stood at 99% in series [1] (Mus musculus, T-lymphocyte, Table 1, L-686,292 31 ng/ml & L-679,934 (1 ng/ml), read-out: % Inhibition); 99% in series [1] (Mus musculus, T-lymphocyte, Table 1, L-686,292 63 ng/ml & L-679,934 (1 ng/ml), read-out: % Inhibition); 96% in series [1] (Mus musculus, T-lymphocyte, Table 1, L-686,292 125 ng/ml & L-679,934 (1 ng/ml), read-out: % Inhibition); 65% in series [1] (Mus musculus, T-lymphocyte, Table 1, L-686,292 250 ng/ml & L-679,934 (1 ng/ml), read-out: % Inhibition); 3% in series [1] (Mus musculus, T-lymphocyte, Table 1, L-686,292 500 ng/ml & L-679,934 (1 ng/ml), read-out: % Inhibition); 0% in series [1] (Mus musculus, T-lymphocyte, Table 1, L-686,292 1000 ng/ml & L-679,934 (1 ng/ml), read-out: % Inhibition). Further, the inhibition at 0.001 µg/mL is 93.4% in series [1] (Mus musculus, T-lymphocyte, Table 2, L-686,292 31.3 ng/ml + inhibitor L-679,934 (1 ng/ml), read-out: % Inhibition); 65.7% in series [1] (Mus musculus, T-lymphocyte, Table 2, L-686,292 62.5 ng/ml + inhibitor L-679,934 (1 ng/ml), read-out: % Inhibition); 0% in series [1] (Mus musculus, T-lymphocyte, Table 2, L-686,292 125 ng/ml + inhibitor L-679,934 (1 ng/ml), read-out: % Inhibition); 4.7% in series [1] (Mus musculus, T-lymphocyte, Table 2, L-686,292 1000 ng/ml + inhibitor L-679,934 (1 ng/ml), read-out: % Inhibition). In addition, the IC50 in series [1] (Mus musculus, T-lymphocyte, reversal of inhibition by L-679,934 (1 ng/ml), read-out: IC₅₀ of reversal) was 0.25 µg/mL and 328 nM. Also, the pIC50 in series [1] (Mus musculus, T-lymphocyte, reversal of inhibition by L-679,934, 'generally in the range', read-out: IC₅₀ of reversal, general range) is 6.40 to 7.00. Further, in series [1] (qualitative statement), the “L-679,934 antagonist activity” value is listed as “exhibits reversal of L-679,934 mediated inhibition of T-cell activation”. For the same compound, the Solubility entry in series [2] is “Solubility in methanol”.

By inhibition is commonly meant the percentage by which the read-out fell short of the control.
